From patent US9469615B2, “Quinoxalines and AZA-quinoxalines as CRTH2 receptor modulators” (Merck Sharp & Dohme Corp., priority 2010, dated 2016)
pKi: −log10 of the molar value.

biological target: T1, hCRTH2 (Homo sapiens, UniProt Q9Y5Y4); assay: Radioligand binding assay ([3H]PGD2 competition, HEK-hCRTH2 membranes); conditions: [3H]PGD2 binding, rated A-E (Table A)
T1 construct: expressed in transfected cells; host or cells: HEK (human embryonic kidney) cells expressing hCRTH2; membrane preparation
T1 sequence (Q9Y5Y4 1-395): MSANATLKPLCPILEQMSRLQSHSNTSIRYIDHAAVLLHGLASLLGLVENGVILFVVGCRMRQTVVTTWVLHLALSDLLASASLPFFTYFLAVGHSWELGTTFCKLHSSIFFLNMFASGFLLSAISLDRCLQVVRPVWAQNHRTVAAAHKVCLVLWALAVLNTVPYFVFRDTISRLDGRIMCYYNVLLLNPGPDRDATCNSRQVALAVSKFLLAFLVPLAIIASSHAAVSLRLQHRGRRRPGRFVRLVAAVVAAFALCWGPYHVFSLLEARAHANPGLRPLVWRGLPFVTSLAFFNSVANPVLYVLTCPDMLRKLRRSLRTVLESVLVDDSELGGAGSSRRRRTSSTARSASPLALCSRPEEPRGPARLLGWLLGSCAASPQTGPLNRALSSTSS
Protocol: Biological Assays Radioligand Binding Assay.
Radioligand binding assays were performed at room temperature in 50 mM Tris-HCl pH 7.4, 1 mM EDTA containing 2 mM MnCl2 and 3.0 nM [^3H]PGD2 (New England Nuclear, Boston, Mass.) (171 Ci mmol^−1), in a final volume of 0.2 mL. Competing ligands were diluted in dimethylsulfoxide (Me2SO) that was kept constant at 1% (v/v) of the final incubation volume. The reaction was initiated by the addition of 8-20 μg of membrane protein prepared from a human embryonic kidney (HEK)-hCRTH2 cell line. Total and non-specific binding were determined in the absence and the presence of 10 μM PGD2, respectively. […] The reaction was routinely conducted for 60 min at room temperature and terminated by rapid filtration through prewetted (0.3% polyethyleneimine) 96-well printed Filtermate™ (Wallac) using a Tomtec® harvester (Hamden, Conn.). After washing with cold buffer, the filter was dried for 2 minutes in microwave, and Meltilex Scintillator sheet (Wallac) was melted on for 2 min. The radioactivity was measured with Betaplate model 1205 (Wallac).

pKi, 6.15 to 6.70:
O=C(O)CCCCc1nc2cc(C(=O)Nc3ccccc3F)ccc2nc1-c1ccc(F)cc1 [5P, 3-(4-fluorophenyl)-7-[[(2-fluorophenyl)amino]carbonyl]-2-quinoxalinepentanoic acid]
O=C(O)CCCCc1nc2cc(NC(=O)c3ccc(OC(F)(F)F)cc3)ccc2nc1-c1ccccc1 [11D]
O=C(O)CCCCc1nc2cc(NC(=O)c3ccc(Cl)cc3)ccc2nc1-c1ccccc1 [11E, 5-(7-{[(4-chlorophenyl)-carbonyl]amino}-3-phenyl-quinoxalin-2-yl)pentanoic acid]
O=C(O)CCCCc1nc2cc(NC(=O)Cc3ccc(C(F)(F)F)cc3)ccc2nc1-c1ccccc1 [11F, 5-[3-phenyl-7-({[4-(trifluoromethyl)phenyl]acetyl}amino)quinoxalin-2-yl]pentanoic acid]

pKi, 8.70 to 10.00:
O=C(O)CCCCc1nc2cc(C(=O)N3CCN(c4ccccc4)CC3)ccc2nc1-c1ccc(C(F)(F)F)cc1 [3Y, 7-[(4-phenyl-1-piperazinyl)carbonyl]-3-[4-(trifluoromethyl)phenyl]-2-quinoxalinepentanoic acid]
O=C(O)CCCCc1nc2cc(C(=O)C3CC3)ccc2nc1-c1ccc(C(F)(F)F)cc1 [3Z, 7-(cyclopropylcarbonyl)-3-[4-(trifluoromethyl)phenyl]-2-quinoxalinepentanoic acid]
O=C(O)CCCCc1nc2cc(C(=O)c3ccccc3)ccc2nc1-c1ccc(F)cc1 [5G]
O=C(O)CCCCc1nc2cc(C(=O)C3CC3)ccc2nc1-c1ccccc1 [6G, 7-(cyclopropylcarbonyl)-3-phenyl-2-quinoxalinepentanoic acid]
CC(C)C(=O)c1ccc2nc(-c3ccc(F)cc3)c(CCCCC(=O)O)nc2c1 [7C, 3-(4-fluorophenyl)-7-(2-methyl-1-oxopropyl)-2-quinoxalinepentanoic acid]
O=C(O)CCCOc1nc2cc(C(=O)NCc3ccc(Cl)cc3)ccc2nc1-c1ccccc1 [10C, 4-({7-[(4-chlorobenzyl)carbamoyl]-3-phenylquinoxalin-2-yl}oxy)butanoic acid]
CN(Cc1ccccc1)C(=O)c1ccc2nc(-c3ccccc3)c(OCCCC(=O)O)nc2c1 [10E, 4-({7-[benzyl(methyl)carbamoyl]-3-phenylquinoxalin-2-yl}oxy)butanoic acid]
O=C(O)CCCCc1nc2cc(C(=O)N3CCN(c4ccccc4)CC3)cnc2nc1-c1ccccc1 [14G, 5-{3-phenyl-7-[(4-phenylpiperazin-1-yl)carbonyl]pyrido [2,3-b]pyrazin-2-yl}pentanoic acid]
O=C(O)CCCCc1nc2cc(C(=O)NCc3ccccc3F)ccc2nc1-c1ccccc1 [15AB, 5-{7-[(2-fluorobenzyl)carbamoyl]-3-phenylquinoxalin-2-yl}pentanoic acid]
O=C(O)CCCCc1nc2cc(C(=O)NCc3cccc(F)c3)ccc2nc1-c1ccccc1 [15AC, 5-{7-[(3-fluorobenzyl)carbamoyl]-3-phenylquinoxalin-2-yl}pentanoic acid]

pKi, 7.70 to 8.68:
CC(C)NC(=O)c1ccc2nc(-c3ccc(F)cc3)c(CCCCC(=O)O)nc2c1 [5R, 3-(4-fluorophenyl)-7-[[(1-methylethyl)amino]carbonyl]-2-quinoxalinepentanoic acid]
O=C(O)CCCCc1nc2cc(C(=O)N3CCC3)ccc2nc1-c1ccc(F)cc1 [5S, 7-(1-azetidinylcarbonyl)-3-(4-fluorophenyl)-2-quinoxalinepentanoic acid]
COC(=O)c1ccc2nc(-c3ccccc3)c(CCCCC(=O)O)nc2c1 [6H, 7-(methoxycarbonyl)-3-phenyl-2-quinoxalinepentanoic acid]
C[C@H](NC(=O)c1ccc2nc(-c3ccccc3)c(OCCCC(=O)O)nc2c1)c1ccccc1 [10D, 4-[(3-phenyl-7-{[(1S)-1-phenylethyl]carbamoyl}quinoxalin-2-yl)oxy] butanoic acid]
O=C(O)CCCOc1nc2cc(C(=O)N3CCc4ccccc4C3)ccc2nc1-c1ccccc1 [10F, 4-{[7-(3,4-dihydroiso-quinolin-2(1H)-ylcarbonyl)-3-phenylquinoxalin-2-yl]oxy} butanoic acid]
O=C(O)CCCCc1nc2cc(C(=O)NCc3ccc(Cl)cc3)cnc2nc1-c1ccccc1 [14D, 5-{7-[(4-chlorobenzyl)-carbamoyl]-3-phenylpyrido[2,3-b]pyrazin-2-yl} pentanoic acid]
C[C@@H](NC(=O)c1ccc2nc(-c3ccccc3)c(CCCCC(=O)O)nc2c1)c1ccccc1 [15A, 5-(3-phenyl-7-{[(1R)-1-phenylethyl]carbamoyl}quinoxalin-2-yl) pentanoic acid]
O=C(O)CCCCc1nc2cc(C(=O)NCc3ccc(F)cc3)ccc2nc1-c1ccccc1 [15AD, 5-{7-[(4-fluorobenzyl)carbamoyl]-3-phenylquinoxalin-2-yl}pentanoic acid]
O=C(O)CCCCc1nc2cc(C(=O)NC3(c4ccccc4)CC3)ccc2nc1-c1ccccc1 [15AE, 5-{3-phenyl-7-[(1-phenylcyclopropyl)carbamoyl]quinoxalin-2-yl}pentanoic acid]
O=C(O)CCCCc1nc2cc(C(=O)NCc3ccccn3)ccc2nc1-c1ccccc1 [15AF, 5-{3-phenyl-7-[(pyridin-2-ylmethyl)carbamoyl]quinoxalin-2-yl} pentanoic acid]
O=C(O)CCCCc1nc2cc(C(=O)NCc3cccnc3)ccc2nc1-c1ccccc1 [15AG, 5-{3-phenyl-7-[(pyridin-3-ylmethyl)carbamoyl]quinoxalin-2-yl} pentanoic acid]
O=C(O)CCCCc1nc2cc(C(=O)N3CCCCC3c3ccccc3)ccc2nc1-c1ccccc1 (centres unmarked) [15AJ, 5-{3-phenyl-7-[(2-phenylpiperidin-1-yl)carbonyl]quinoxalin-2-yl}pentanoic acid]
O=C(O)CCCCc1nc2cc(C(=O)N3CCC(c4ccccc4)C3)ccc2nc1-c1ccccc1 (centres unmarked) [15AK, 5-{3-phenyl-7-[(3-phenylpyrrolidin-1-yl)carbonyl]quinoxalin-2-yl}pentanoic acid]

pKi, 6.70 to 7.70:
C[C@@H](NC(=O)c1ccc2nc(-c3ccc(C(F)(F)F)cc3)c(CCCCC(=O)O)nc2c1)c1cccc(-c2ccccc2)c1 [4D, 7-[[[1-(R)-[1,1′-biphenyl]-3-ylethyl]amino]carbonyl]-3-[4-(trifluoromethyl)-phenyl]-2-quinoxaline-pentanoic acid]
O=C(O)CCCCc1nc2cc(C(=O)Nc3cccc(F)c3)ccc2nc1-c1ccc(F)cc1 [5N, 3-(4-fluorophenyl)-7-[[(3-fluorophenyl)amino]carbonyl]-2-quinoxalinepentanoic acid]
O=C(O)CCCCc1nc2cc(C(=O)Nc3ccc(F)cc3)ccc2nc1-c1ccc(F)cc1 [5O, 3-(4-fluorophenyl)-7-[[(4-fluorophenyl)amino]carbonyl]-2-quinoxalinepentanoic acid]
CN(C)C(=O)c1ccc2nc(-c3ccc(F)cc3)c(CCCCC(=O)O)nc2c1 [5Q, 7-[(dimethylamino)carbonyl]-3-(4-fluorophenyl)-2-quinoxalinepentanoic acid]
C[C@@H](NC(=O)c1ccc2nc(CCCCC(=O)O)c(-c3ccccc3)nc2c1)c1ccc(F)cc1 [8G]
C[C@H](NC(=O)c1cnc2nc(-c3ccccc3)c(CCCCC(=O)O)nc2c1)c1ccccc1 [14C, 5-(3-phenyl-7-{[(1S)-1-phenylethyl]carbamoyl}pyrido[2,3-b]pyrazin-2-yl)pentanoic acid]
O=C(O)CCCCc1nc2cc(C(=O)NC3(c4ccccc4)CC3)cnc2nc1-c1ccccc1 [14E, 5-{3-phenyl-7-[(1-phenylcyclopropyl)carbamoyl]-pyrido[2,3-b]pyrazin-2-yl}pentanoic acid]
C[C@@H](NC(=O)c1cnc2nc(-c3ccccc3)c(CCCCC(=O)O)nc2c1)c1ccccc1 [14F, 5-(3-phenyl-7-{[(1R)-1-phenylethyl]carbamoyl}pyrido[2,3-b]pyrazin-2-yl)pentanoic acid]
CC(NC(=O)c1cnc2nc(-c3ccccc3)c(CCCCC(=O)O)nc2c1)c1ccncc1 (centres unmarked) [14H, 5-{3-phenyl-7-[(1-pyridin-4-ylethyl)carbamoyl]pyrido[2,3-b]pyrazin-2-yl} pentanoic acid]
O=C(O)CCCCc1nc2cc(C(=O)Nc3ccccc3)ccc2nc1-c1ccccc1 [15AA, 5-[3-phenyl-7-(phenylcarbamoyl)quinoxalin-2-yl] pentanoic acid]
O=C(O)CCCCc1nc2cc(C(=O)NCc3ccncc3)ccc2nc1-c1ccccc1 [15AH, 5-{3-phenyl-7-[(pyridin-4-ylmethyl)carbamoyl]quinoxalin-2-yl} pentanoic acid]

same assay, conditions: [3H]PGD2 binding, values in text

pKi, 9.30:
O=C(O)CCCCc1nc2cc(C(=O)C3CC3)ccc2nc1-c1ccccc1 [6G, 7-(cyclopropylcarbonyl)-3-phenyl-2-quinoxalinepentanoic acid]

pKi, 6.58:
O=C(O)CCCCc1nc2cc(C(=O)Nc3ccccc3F)ccc2nc1-c1ccc(F)cc1 [5P, 3-(4-fluorophenyl)-7-[[(2-fluorophenyl)amino]carbonyl]-2-quinoxalinepentanoic acid]

pKi, 6.65:
O=C(O)CCCCc1nc2cc(NC(=O)Cc3ccc(C(F)(F)F)cc3)ccc2nc1-c1ccccc1 [11F, 5-[3-phenyl-7-({[4-(trifluoromethyl)phenyl]acetyl}amino)quinoxalin-2-yl]pentanoic acid]
